ChEMBL document CHEMBL2396574, “Design, synthesis and evaluation of retinoids with novel bulky hydrophobic partial structures” (Bioorg Med Chem, 2013)
Calls of active or inactive are those of the source. The rule behind the calls is not given here.

Key:
[1] = molecular target: T1, Retinoic acid receptor RXR-beta (Homo sapiens) (UniProt P28702); assay: Transactivation of full-length RXRbeta (unknown origin) expressed in African green monkey COS1 cells at 1000 nM by luciferase reporter gene assay; format: cell-based; details: COS-1
T1 sequence (whole entry): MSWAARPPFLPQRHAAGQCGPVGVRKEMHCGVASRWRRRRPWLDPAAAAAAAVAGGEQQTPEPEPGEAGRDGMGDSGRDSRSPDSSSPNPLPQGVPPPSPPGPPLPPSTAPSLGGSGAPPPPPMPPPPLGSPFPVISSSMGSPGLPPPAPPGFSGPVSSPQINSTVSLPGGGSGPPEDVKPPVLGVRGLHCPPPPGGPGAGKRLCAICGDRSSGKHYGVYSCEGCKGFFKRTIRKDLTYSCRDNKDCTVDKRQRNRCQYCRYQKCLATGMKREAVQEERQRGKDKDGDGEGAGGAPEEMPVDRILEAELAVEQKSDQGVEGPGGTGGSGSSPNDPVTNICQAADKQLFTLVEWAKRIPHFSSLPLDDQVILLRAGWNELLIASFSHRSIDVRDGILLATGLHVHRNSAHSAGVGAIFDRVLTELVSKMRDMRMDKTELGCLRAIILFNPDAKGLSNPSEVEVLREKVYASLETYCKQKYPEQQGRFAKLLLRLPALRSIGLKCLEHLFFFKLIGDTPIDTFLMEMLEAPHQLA

[2] = molecular target: T2, Retinoic acid receptor RXR-gamma (Homo sapiens) (UniProt P48443); assay: Transactivation of full-length RXRgamma (unknown origin) expressed in African green monkey COS1 cells at 1000 nM by luciferase reporter gene assay; format: cell-based; details: COS-1
T2 sequence (whole entry): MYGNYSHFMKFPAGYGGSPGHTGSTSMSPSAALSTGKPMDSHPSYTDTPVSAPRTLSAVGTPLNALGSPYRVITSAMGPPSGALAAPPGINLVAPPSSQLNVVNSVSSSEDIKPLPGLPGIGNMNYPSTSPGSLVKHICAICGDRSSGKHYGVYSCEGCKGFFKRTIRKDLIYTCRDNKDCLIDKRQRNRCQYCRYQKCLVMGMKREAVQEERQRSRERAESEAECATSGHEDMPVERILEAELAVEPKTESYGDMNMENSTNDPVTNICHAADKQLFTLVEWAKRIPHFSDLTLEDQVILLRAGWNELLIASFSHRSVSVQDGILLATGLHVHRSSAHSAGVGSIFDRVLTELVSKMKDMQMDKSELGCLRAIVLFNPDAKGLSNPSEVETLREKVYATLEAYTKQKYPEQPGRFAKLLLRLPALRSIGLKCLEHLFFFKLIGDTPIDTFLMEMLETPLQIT

[3] = molecular target: T3, Retinoic acid receptor gamma (Homo sapiens) (UniProt P13631); assay: Transactivation of Gal4-fused RARgamma (unknown origin) expressed in African green monkey COS1 cells at 100 nM by luciferase reporter gene assay relative to DMSO-treated control; format: cell-based; details: COS-1
T3 sequence (whole entry): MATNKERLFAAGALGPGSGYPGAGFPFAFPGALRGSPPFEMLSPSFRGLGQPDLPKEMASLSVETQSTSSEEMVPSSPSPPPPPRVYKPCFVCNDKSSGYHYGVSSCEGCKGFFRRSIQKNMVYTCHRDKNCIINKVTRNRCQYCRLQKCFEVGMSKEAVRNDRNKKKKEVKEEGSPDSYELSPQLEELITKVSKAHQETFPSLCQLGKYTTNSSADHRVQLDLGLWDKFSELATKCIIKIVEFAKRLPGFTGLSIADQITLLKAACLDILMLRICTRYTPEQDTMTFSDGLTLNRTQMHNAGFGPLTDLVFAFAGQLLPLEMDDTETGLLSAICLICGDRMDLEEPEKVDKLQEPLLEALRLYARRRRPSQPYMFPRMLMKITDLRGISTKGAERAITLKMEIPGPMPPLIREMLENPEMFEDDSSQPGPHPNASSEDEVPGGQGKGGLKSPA

[4] = molecular target: T4, Retinoic acid receptor beta (Homo sapiens) (UniProt P10826); assay: Transactivation of Gal4-fused RARbeta (unknown origin) expressed in African green monkey COS1 cells at 100 nM by luciferase reporter gene assay relative to DMSO-treated control; format: cell-based; details: COS-1
T4 sequence (whole entry): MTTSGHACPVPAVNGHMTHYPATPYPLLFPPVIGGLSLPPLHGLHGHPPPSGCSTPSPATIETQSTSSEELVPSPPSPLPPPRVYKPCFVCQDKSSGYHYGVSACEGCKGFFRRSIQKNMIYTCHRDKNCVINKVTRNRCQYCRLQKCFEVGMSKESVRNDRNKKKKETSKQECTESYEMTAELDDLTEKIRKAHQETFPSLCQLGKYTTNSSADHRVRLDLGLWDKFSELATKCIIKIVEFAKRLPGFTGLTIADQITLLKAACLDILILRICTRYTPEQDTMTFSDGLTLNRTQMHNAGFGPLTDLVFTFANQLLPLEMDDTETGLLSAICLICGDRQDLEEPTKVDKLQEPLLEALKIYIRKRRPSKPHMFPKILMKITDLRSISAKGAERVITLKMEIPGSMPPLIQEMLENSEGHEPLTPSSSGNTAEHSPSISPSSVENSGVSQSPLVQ

HL-60 [5] = assay: Induction of human HL60 cell differentiation into myeloid cells at 10 nM after 4 days by NBT reduction assay relative to control; format: functional
HL-60 [6] = assay: Induction of human HL60 cell differentiation into myeloid cells at 100 nM after 4 days by NBT reduction assay relative to control; format: functional
HL-60 [7] = assay: Induction of human HL60 cell differentiation into myeloid cells at 10^-6 M after 4 days by NBT reduction assay; format: functional, cell-based

Structure (SMILES)	Activity [1]	Activity [2]	fold change (FC) [3]	fold change (FC) [4]	Activity (HL-60 [5]) [%]	Activity (HL-60 [6]) [%]	Activity (HL-60 [7])
O=C(O)c1ccc(NC(=O)c2cc3cc(c2)CCCCCCCCCC3)cc1	inactive	inactive	1	13	30	38	–
COc1cc(NC(=O)c2cc3c4c(c2)CCCC4CCC3)ccc1C(=O)O	inactive	inactive	1	2	7	10	–
O=C(Nc1ccc(C(=O)O)c(F)c1)c1cc2c3c(c1)CCCCC3CCCC2	inactive	inactive	5	19	28	44	Active
O=C(O)c1ccc(C(=O)Nc2cc3c4c(c2)CCCC4CCC3)cc1	inactive	inactive	1	5	7	18	–
O=C(Nc1ccc(C(=O)O)c(F)c1)c1cc2c3c(c1)CCCC3CCC2	inactive	inactive	2	7	49	60	–
O=C(Nc1ccc(C(=O)O)c(Cl)c1)c1cc2c3c(c1)CCCCC3CCCC2	inactive	inactive	2	13	18	35	–
